# Reference: patent publication US12636370B2, “Combination therapy for treatment of cancer” (Institute For Cancer Research, priority 2019, dated 2026)
# How the values were obtained:
# Assay type in all cases: cell-based
# BRD2, BRD3 or BRD4 RNA = test: qRT-PCR of BRD RNA levels, OVCAR8 MZ1-R cells; details: 1 μM, 48 hours
# OVCAR8 ARV-R cells = test: CellTiter-Glo cell viability, OVCAR8 ARV-R cells; details: escalating doses, 5 days
# CDK9 [1] = target: T1, CDK9 (Homo sapiens, UniProt P50750); test: Western blot of CDK9 protein levels, OVCAR8 Thal-R cells; details: Thal 500 nM or 2 μM kinase inhibitor, 4 hours
# T1 construct: OVCAR8 cells were treated with escalating doses of Thal SNS 032 and CDK9 protein levels were determined by Western blot; endogenous in cells; host or cells: OVCAR8 parental and Thal-R cells
# T1 sequence (P50750 whole entry): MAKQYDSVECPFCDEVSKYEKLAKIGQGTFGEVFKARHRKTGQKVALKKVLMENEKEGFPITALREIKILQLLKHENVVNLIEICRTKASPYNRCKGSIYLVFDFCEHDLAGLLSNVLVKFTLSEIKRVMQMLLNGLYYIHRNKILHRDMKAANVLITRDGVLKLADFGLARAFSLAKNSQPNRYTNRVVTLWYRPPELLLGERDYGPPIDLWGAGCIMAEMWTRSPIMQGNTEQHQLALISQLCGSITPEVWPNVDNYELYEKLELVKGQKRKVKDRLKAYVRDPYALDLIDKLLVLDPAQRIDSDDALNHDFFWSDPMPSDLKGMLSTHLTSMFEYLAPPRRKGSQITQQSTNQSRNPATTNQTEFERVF
# T1 sequence (O60563 whole entry partner): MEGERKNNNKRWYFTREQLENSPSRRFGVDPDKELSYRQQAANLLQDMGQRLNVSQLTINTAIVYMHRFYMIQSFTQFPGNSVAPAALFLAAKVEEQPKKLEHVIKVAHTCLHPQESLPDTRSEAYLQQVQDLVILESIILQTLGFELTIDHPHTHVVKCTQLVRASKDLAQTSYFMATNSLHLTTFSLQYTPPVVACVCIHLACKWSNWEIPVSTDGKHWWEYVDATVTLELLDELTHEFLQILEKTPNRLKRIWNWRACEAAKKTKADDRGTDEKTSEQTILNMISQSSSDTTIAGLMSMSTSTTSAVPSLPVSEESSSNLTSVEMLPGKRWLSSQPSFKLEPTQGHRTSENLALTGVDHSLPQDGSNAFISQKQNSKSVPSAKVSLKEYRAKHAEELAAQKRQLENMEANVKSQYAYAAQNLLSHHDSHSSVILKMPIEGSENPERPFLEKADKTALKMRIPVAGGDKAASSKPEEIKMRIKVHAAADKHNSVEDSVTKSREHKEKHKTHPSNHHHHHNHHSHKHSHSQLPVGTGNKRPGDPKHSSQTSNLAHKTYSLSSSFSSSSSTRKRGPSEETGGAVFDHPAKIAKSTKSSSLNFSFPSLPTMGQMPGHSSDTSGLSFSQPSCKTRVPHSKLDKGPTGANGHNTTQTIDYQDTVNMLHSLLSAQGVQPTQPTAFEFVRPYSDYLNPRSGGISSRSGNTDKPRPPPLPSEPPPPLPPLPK
# Description: OVCAR8 cells were treated with escalating doses of Thal SNS 032 and CDK9 protein levels were determined by Western blot (FIG. 15A). […] Thal-R inhibitor treated cell viabilities were normalized to DMSO treated Thal-R cells. […] OVCAR8 cells were treated with 100 nM Thal SNS 032, escalating doses of GSK529A or RAD001, or the combination of Thal SNS 032 and kinase inhibitors, for 5 days and cell viability was assessed by CellTiter-Glo (FIGS. 15F and 15G).
# OVCAR8 MZ1-R cells [2] = test: CellTiter-Glo cell viability, OVCAR8 MZ1-R cells; details: escalating doses, 5 days; for sensitivity of MZ1-R cells relative to JQ1-R cells or parental cells: OVCAR8, inhibitor screen
# [3] = system: BET proteins (BRD2, BRD3, BRD4); test: Western blot of BET protein levels, OVCAR8 parental cells
# [4] = system: BET proteins (BRD2, BRD4); test: Western blot of BET proteins, KURAMOCHI, COV362 and OVCAR5 MZ1-R cells
# [5] = system: OVCAR8 parental, MZ1-R or ARV-R; test: 14-day colony formation assay, crystal violet staining; details: ARV-R or MZ1-R vs parental OVCAR8, 14-day
# Description: Parental, JQ1-R or MZ1-R OVCAR8 cells were treated with escalating doses of MK2206 for 5 days and cell viability assessed by CellTiter-Glo. MZ1-R or JQ1-R inhibitor treated cell viabilities normalized to DMSO treated JQ1-R or MZ1-R cells, respectfully (FIG. 11J). […] Parental, JQ1-R or MZ1-R OVCAR8 cells were treated with escalating doses of LP-935509 for 5 days and cell viability assessed by CellTiter-Glo. MZ1-R or JQ1-R inhibitor treated cell viabilities normalized to DMSO treated JQ1-R or MZ1-R cells, respectfully (FIG. 11K). […] Long-term 14-day colony formation assay of OVCAR8 parental, MZ1-R or ARV-R were treated with escalating doses of GSK529A or DMSO. Colony formation was assessed by crystal violet staining (FIG. 11L).
# [6] = system: KURAMOCHI, COV362 and OVCAR5 MZ1-R cells; test: CellTiter-Glo cell viability, KURAMOCHI, COV362 and OVCAR5 MZ1-R cells; details: COV362 and OVCAR5, escalating doses, 5 days
# OVCAR8 Thal-R cells = test: CellTiter-Glo cell viability, OVCAR8 Thal-R cells; details: OVCAR8, escalating doses, 5 days
# Description: (§1) Chronic exposure of OVCAR8 cells to CDK9 PROTAC (Thal SNS 032) sensitized cells to RAD001 or GSK1904529A. […] Moreover, these studies show both BET PROTACs and CDK9 PROTACs elicit a similar dependency on MTOR signaling to promote drug resistance. […] OVCAR8 cells were treated with escalating doses of Thal SNS 032 and CDK9 protein levels were determined by Western blot (FIG. 15A). […] (FIG. 15B). […] Thal-R inhibitor treated cell viabilities were normalized to DMSO treated Thal-R cells. Combination therapies involving GSK529A or RAD001 and Thal SNS 032 improved growth repression of OVCAR8 cells. OVCAR8 cells were treated with 100 nM Thal SNS 032, escalating doses of GSK529A or RAD001, or the combination of Thal SNS 032 and kinase inhibitors, for 5 days and cell viability was assessed by CellTiter-Glo (FIGS. 15F and 15G).
# [7] = system: BET proteins (BRD2, BRD3, BRD4); test: Western blot of BET proteins and BRD4 targets, OVCAR8 MZ1-R cells; details: for BET protein levels: Western blot
# OVCAR5 JQ1-R cells = test: Growth curves, OVCAR5 JQ1-R cells
# BET proteins, FOSL1, MYC = test: Western blot of BET proteins and BRD4 targets, JQ1-R cells
# OVCAR8 MZ1-R cells [8] = test: Apoptosis by Western blot, OVCAR8 MZ1-R cells
# [9] = system: INSR and downstream MTOR, AKT and MAPK signaling; test: Kinase signaling in BBD-R cells (MIB-MS, phospho-blot); details: for phosphorylation of P70S6K (T359): BBD-R cells (MZ1-R, ARV-R), 4 hours
# Description: Reduced MIB-binding of kinases involved in cell cycle (WEE1, CHEK1, CDK2, CDK6 and PLK1), as well as kinases required for translation (EIF2AK1, EIF2AK2, and EIF2AK4) were also observed following GSK529A treatment. […] Enrichment maps of pathways repressed by INSR inhibition generated from MIB-MS profiles of OVCAR8 cells treated with GSK529A (1 μM) treatment for 48 hours. Statistical differences in protein log 2 LFQ z-scores comparing GSK529A to control treated MZ1-R cells was determined by paired T-Test Benjamini- Hochberg adjusted p values at FDR of <0.05 using Perseus Software. […] Enrichment maps were generated in Cytoscape using the Enrichment Map app v2.2.1. (data not shown).
# KURAMOCHI cells = test: Combination cell viability, KURAMOCHI cells, CellTiter-Glo; details: 100 nM, 5 days
# Text: The proposed model of the protection of BRD4 from PROTAC-degradation by MTOR signaling in ovarian cancer cells is shown in FIG. 7J. PROTAC-mediated degradation of BRD4 induces RTK signaling resulting in increased MTOR signaling which prevents the degradation of BRD4 in cells resistant to BET PROTACs.
# DLD-1 cells [10] = test: Spheroid assay, DLD-1 cells; details: 2 μM RAD001, 1 nM dBET6
# Description: Data were analyzed as % cell viability of DMSO control, presented as means of 3 independent assays.
# [11] = system: BET proteins (BRD2, BRD3, BRD4); test: Western blot of BET proteins, OVCAR8 ARV-R cells
# CDK9 [12] = target: T1, CDK9; test: Western blot of CDK9 protein levels, OVCAR8 cells; details: escalating doses
# Description: as §1
# DLD-1 cells [13] = test: Cell-Titer Glo cell viability and drug synergy, DLD-1 cells
# Description: Blockade of MTORC1 signaling sensitizes cancer cells resistant to BET-PROTACs. […] Data were analyzed as % cell viability of DMSO control, presented as means of 3 independent assays.
SMILES,"BRD2, BRD3 or BRD4 RNA levels (BRD2, BRD3 or BRD4 RNA)",cell viability of ARV-R cells compared with parental cells (OVCAR8 ARV-R cells),CDK9 protein levels (CDK9 [1]),sensitivity of MZ1-R cells relative to JQ1-R cells or parental cells (OVCAR8 MZ1-R cells [2]),BET protein levels [4],cell viability / growth of MZ1-R cells compared with parental cells [6],sensitivity of Thal-R cells relative to parental cells (OVCAR8 Thal-R cells),BET protein levels [7],growth inhibition (OVCAR5 JQ1-R cells),apoptosis (OVCAR8 MZ1-R cells [8]),phosphorylation of P70S6K (T359) ([9]; 1 μM),cell viability / growth inhibition (KURAMOCHI cells),spheroid growth in 3D assays (DLD-1 cells [10]),further results
CCc1cc(Nc2nccc(-c3c(-c4ccc(OC)c(C(=O)Nc5c(F)cccc5F)c4)nc4ccccn34)n2)c(OC)cc1N1CCC(N2CCN(S(C)(=O)=O)CC2)CC1 [GSK1904529A],unaffected,reduced cell viability more than in parental cells,downregulation of CDK9,more sensitive,reduced BRD2 and BRD4 proteins,significantly blocked cell growth to a greater extent than parental cells,more sensitive,significantly reduced,minimal growth inhibition,induction of apoptosis,reduced MTOR-mediated phosphorylation of P70S6K (T359),–,–,"BET protein levels [3]: did not reduce BET protein levels; colony formation [5]: inhibited colony formation to a greater extent than parental cells; MYC protein levels ([7]; escalating doses, 48 hours): dose dependent reduction in MYC protein levels; BET protein levels (BET proteins, FOSL1, MYC): did not reduce BET protein levels; kinase MIB-binding ([9]; OVCAR8 MZ1-R cells, 1 μM, 48 hours, MIB-MS): reduced MIB-binding of drug targets INSR and IGF1R; kinase activity by phospho-blot ([9]; OVCAR8 MZ1-R cells, escalating doses, 48 hours): Inhibition of INSR/IGF1R, MTOR, P70S6K, BRAF and ERK activity"
CO[C@H]1C[C@@H]2CC[C@@H](C)[C@@](O)(O2)C(=O)C(=O)N2CCCC[C@H]2C(=O)O[C@H]([C@H](C)C[C@@H]2CC[C@@H](OCCO)[C@H](OC)C2)CC(=O)[C@H](C)/C=C(\C)[C@@H](O)[C@@H](OC)C(=O)[C@H](C)C[C@H](C)/C=C/C=C/C=C/1C [RAD001],unaffected,reduced cell viability more than in parental cells,downregulation of CDK9,more sensitive,reduced BRD2 and BRD4 proteins,significantly blocked cell growth to a greater extent than parental cells,more sensitive,reduced BRD2 and BRD4 levels,minimal growth inhibition,–,reduced MTOR-mediated phosphorylation of P70S6K (T359),less effective,ineffective,"BET protein levels [11]: reduced BRD2 and BRD4 levels; phosphorylated RNA pol II (S2) ([9]; OVCAR8 MZ1-R cells, 48 hour RAD001 treatment, with or without bortezomib): inhibition of phosphorylated RNA pol II (S2)"
CC(C)(C)c1cnc(CSc2cnc(NC(=O)C3CCN(CC(=O)NCCOCCOCCOCCNc4cccc5c4C(=O)N(C4CCC(=O)NC4=O)C5=O)CC3)s2)o1 (stereo not drawn) [Thal SNS 032],–,–,failed to degrade CDK9,–,–,–,–,–,–,–,–,–,–,CDK9 protein levels (CDK9 [12]): reduction of CDK9 protein levels
Cc1sc2c(c1C)C(c1ccc(Cl)cc1)=N[C@@H](CC(=O)NCCCCCCCCNC(=O)COc1cccc3c1C(=O)N(C1CCC(=O)NC1=O)C3=O)c1nnc(C)n1-2 (stereo partly drawn) [dBET6],–,cross resistance,–,–,–,–,–,–,–,promoted apoptosis,–,less effective,ineffective,GI50 (DLD-1 cells [13]): > 1000 nM; cell viability of MZ1-R cells compared with parental cells (OVCAR8 MZ1-R cells [2]; OVCAR8 MZ1-R): inhibited cell viability
